Assays:
[1] = tested on: VEGF-induced HUVEC growth; test: VEGF-induced HUVEC growth reaction evaluation system (cell growth inhibitory action test); type: cell-based; details: Homo sapiens, 72 h, 20 μg/ml test compound solution added 5 μl per well (100 μl), VEGF solution 400 ng/ml 5 μl per well, three days, absorbance at 450 nm, read-out: Cell growth inhibition rate (%)
[2] = tested on: rat adjuvant arthritis model; test: Paw edema inhibitory action test using rat adjuvant arthritis model; type: in vivo; details: po, 504 h; Lewis rat, adjuvant-untreated (secondary inflammation) paw, 10 mg/kg/day orally once a day, 21 days after, average of eight rats; read-out: Paw edema inhibition rate (%)
Description: Paw edema inhibitory action tests of the present compounds were carried out using a rat adjuvant arthritis model, which is one of widely-used methods of evaluating in vivo antiarthritis effects of drugs.
As one of widely-used methods of evaluating antiarthritic effects of drugs, a paw edema inhibitory action test using rat adjuvant arthritis models is known. Paw edema inhibitory action tests of the present compounds were carried out, their paw edema inhibition rates were calculated, and antiarthritic effects of the present compounds were evaluated using the obtained rates as indexes.
A 1% aqueous methyl cellulose solution was added to each test compound to suspend it thereby to prepare a 2 mg/ml test compound suspension.
Liquid paraffin was added to Mycobacterium-butyricum to suspend it to prepare 6 mg/ml adjuvant.
Each paw edema inhibition rate of paw edema in an adjuvant-untreated paw (secondary inflammation paw) in each test compound administration group was calculated to paw edema in a secondary inflammation paw in a control group, and antiarthritic effects of the present compounds were evaluated using the obtained rates as indexes.
Paw edema rates were calculated from the following calculation equation 1, and then paw edema inhibition rates (the average of eight rats per group), which are indexes of the antiarthritic effects, were calculated from the calculation equation 2.

[3] = tested on: B16 cells; test: Tumor growth inhibitory action test using mouse cancer model (B16 cells); type: in vivo; details: po, 240 h; C57BL/6 mouse, B16 cells intradermally, 100 mg/kg/day orally once a day, ten days after injection, average of nine mice; read-out: Tumor tissue weight inhibition rate (%)
Description: Tumor proliferation inhibitory action tests of the present compounds were carried out using a mouse cancer model, which is one of widely-used methods of evaluating in vivo anticancer effects of drugs.
As one of widely-used methods of evaluating anticancer effects of drugs, a tumor growth inhibitory action test using mouse cancer models was reported in Cancer Res., 59, 5209-5218(1999). According to the method described in the above-mentioned literature, tumor growth inhibitory action tests of the present compounds were carried out, their tumor tissue weight inhibition rates were calculated, and anticancer effects of the present compounds were evaluated using the obtained rates as indexes.
A 1% aqueous methyl cellulose solution was added to each test compound to suspend it with a sonicator thereby to prepare a 10 mg/ml test compound suspension.
Physiological saline was added to B16 cells to prepare a 3.3×10^7 cells/ml B16 cell suspension.
Calculation of Tumor Tissue Weight Inhibition Rate
Tumor tissue weight inhibition rates (the average of nine mice per group), which are indexes of anticancer effects were calculated, from the following calculation equation.

[4] = tested on: rat choroidal neovascularization model; test: Neovascularization incidence test using laser-induced rat choroidal neovascularization model; type: in vivo; details: po, 168 h; Brown Norway rat, krypton laser photocoagulation, 30 mg/kg/day orally once a day for seven days, ratio to vehicle administration group, average of three to four individuals and six to eight eyes; read-out: Ratio of neovascularization incidence rate (% of Control)
Description: Neovascularization incidence tests of the present compounds were carried out using a rat choroidal neovascularization model, which is one of widely-used methods of evaluating in vivo choroidal neovascularization inhibitory effects of drugs.
As one of widely-used methods of evaluating choroidal neovascularization inhibitory effects of drugs, a neovascularization incidence test using rat choroidal neovascularization models was reported in Graefe's Arch. Cli. Exp. Ophthalmol., 235, 313-319(1997). According to the method described in the above-mentioned literature, neovascularization incidence tests of the present compounds were carried out, ratios of neovascularization incidence rates of present compounds administration groups were calculated to a neovascularization incidence rate of vehicle administration group (control group), and choroidal neovascularization inhibitory effects of the present compounds were evaluated using the obtained ratios as indexes.
A 1% aqueous methyl cellulose solution was added to each test compound to suspend it thereby to prepare a 6 mg/10 ml test compound suspension.
• 1) A 7:1 mixed solution (1 ml/kg) of a 5% ketamine hydrochloride injection and a 2% xylazine hydrochloride injection was administered intramuscularly to rats (Brown Norway, male, eight weeks old, weight: 200 to 250 g) to anesthetize them systemically. • 2) A tropicamide-phenylephrine hydrochloride ophthalmic solution (trade name: Mydrin-P) was instilled into eyes to cause mydriasis, and then photocoagulation was performed in a Bruch's membrane of each rat using a krypton laser photocoagulation apparatus. The laser irradiation was carried out at eight spots per eye sparsely avoiding thick retinal vessels in a posterior section of ocular fundus and focusing on the retinal deep site. Photocoagulation conditions were adjusted to 100 μm of spot size, […] of output and 0.1 sec. of coagulation time. • 3) After the photocoagulation, the ocular fundus was photographed to confirm photocoagulation (laser irradiation) sites. […] Method of Evaluation • 1) Seven days after the photocoagulation, 0.1 ml of a 10% aqueous fluorescein solution was injected into a tail vein of the rat, and fluorescein fundus photography was performed. • 2) Next, in the fluorescein fundus photography, a spot where fluorescence leak was not observed was judged as negative, and a spot where fluorescence leak was observed was judged as positive. Photocoagulation sites where a little fluorescence leak was observed were judged as positive when two sites are present. • 3) Neovascularization incidence rates were calculated according to the calculation equation 1. Ratios of the neovascularization incidence rates of the test compound administration groups to that of the vehicle administration group were calculated according to the calculation equation 2 from neovascularization incidence rates of respective administration groups.
The values are the average of three to four individuals and six to eight eyes.

SMILES	inhibition at 20 µg/mL (stock) [1]	inhibition in vivo at 10 mg/kg/day [2]	inhibition in vivo at 100 mg/kg/day [3]	response vs control in vivo at 30 mg/kg/day [4]
O=C(Nc1ccc(SC(F)(F)F)cc1)c1cccnc1SCc1ccncc1 [1-158, 2-(4-Pyridylmethylthio)-N-(4-trifluoromethylthiophenyl)pyridine-3-carboxamide]	100%	22%	76%	–
O=C(Nc1ccc2[nH]ncc2c1)c1cccnc1SCc1ccncc1 [1-23, N-(Indazol-5-yl)-2-(4-pyridylmethylthio)pyridine-3-carboxamide]	100%	–	57%	26%
O=C(Nc1ccc(OC(F)(F)F)c(Cl)c1)c1cccnc1SCc1ccncc1 [1-137, N-(3-Chloro-4-trifluoromethoxyphenyl)-2-(4-pyridylmethylthio)pyridine-3-carboxamide]	100%	39%	66%	65%
Cc1cc(C)cc(NC(=O)c2cccnc2SCc2ccnc(Br)c2)c1 [1-230, 2-(2-Bromopyridin-4-ylmethylthio)-N-(3,5-dimethylphenyl)pyridine-3-carboxamide]	100%	–	66%	–
CC(C)(C)c1ccc(NC(=O)c2cccnc2SCc2ccncc2)cc1 [1-51, N-(4-tert-Butylphenyl)-2-(4-pyridylmethylthio)pyridine-3-carboxamide]	98%	–	59%	–
O=C(Nc1ccc2c(c1)CCC2)c1cccnc1SCc1cc[n+]([O-])cc1 [4-8, N-(5-Indanyl)-2-(1-oxopyridin-4-ylmethylthio)pyridine-3-carboxamide]	98%	–	80%	–
O=C(Nc1cc2ccccc2cn1)c1cccnc1SCc1ccncc1 [1-22, N-(3-Isoquinolyl)-2-(4-pyridylmethylthio)pyridine-3-carboxamide]	100%	27%	45%	–
O=C(Nc1ccc2c(c1)CCC2)c1cccnc1SCc1ccncc1 [1-136, N-(5-Indanyl)-2-(4-pyridylmethylthio)pyridine-3-carboxamide]	100%	–	53%	38%
O=C(Nc1ccc2cn[nH]c2c1)c1cccnc1SCc1ccncc1 [1-296, N-(Indazol-6-yl)-2-(4-pyridylmethylthio)pyridine-3-carboxamide]	100%	–	71%	24%
Cc1cc(C)cc(NC(=O)c2cccnc2SCc2cc[n+]([O-])cc2)c1 [4-4, N-(3,5-Dimethylphenyl)-2-(1-oxopyridin-4-ylmethylthio)pyridine-3-carboxamide]	100%	21%	77%	26%
Cc1cc(NC(=O)c2ccccc2SCc2ccncc2)ccc1Cl [1-99, N-(4-Chloro-3-methylphenyl)-2-(4-pyridylmethylthio)benzamide]	100%	–	64%	–
O=C(Nc1ccc(OC(F)(F)F)cc1)c1cccnc1SCc1cc[n+]([O-])cc1 [4-9, 2-(1-Oxopyridin-4-ylmethylthio)-N-(4-trifluoromethoxyphenyl)pyridine-3-carboxamide]	100%	–	77%	–
O=C(Nc1ccc2ncccc2c1)c1cccnc1SCc1ccncc1 [1-21, 2-(4-Pyridylmethylthio)-N-(6-quinolyl)pyridine-3-carboxamide]	99%	–	65%	15%
CCOC(=O)c1cc(CSc2ncccc2C(=O)Nc2cc(C)cc(C)c2)ccn1 [1-241, N-(3,5-dimethylphenyl)-2-(2-ethoxycarbonylpyridin-4-ylmethylthio)pyridine-3-carboxamide]	96%	–	–	–
O=C(Nc1ccc(OC(F)(F)F)c(Cl)c1)c1cccnc1SCc1cc[n+]([O-])cc1 [4-11, N-(3-Chloro-4-trifluoromethoxyphenyl)-2-(1-oxopyridin-4-ylmethylthio)-pyridine-3-carboxamide]	100%	–	62%	–
CCCCc1ccc(NC(=O)c2cccnc2SCc2ccncc2)cc1 [1-50, N-(4-n-Butylphenyl)-2-(4-pyridylmethylthio)pyridine-3-carboxamide]	94%	–	–	–
Cc1cc(NC(=O)c2cccnc2SCc2ccncc2)ccc1OC(F)(F)F [1-175, N-(3-Methyl-4-trifluoromethoxyphenyl)-2-(4-pyridylmethylthio)pyridine-3-carboxamide]	100%	–	–	–
Cc1ccc(NC(=O)c2cccnc2SCc2ccncc2)cc1Cl [1-78, N-(3-Chloro-4-methylphenyl)-2-(4-pyridylmethylthio)pyridine-3-carboxamide]	100%	–	–	–
CCCc1ccc(NC(=O)c2sccc2SCc2ccncc2)cc1 [1-270, N-(4-n-Propylphenyl)-3-(4-pyridylmethylthio)thiophene-2-carboxamide]	99%	–	–	–

Reference: patent US8518973B2, “Compounds having 4-pyridylalkylthio group as a substituent” (Santen Pharmaceutical Co., Ltd., priority 2003, dated 2013)
